Data published in US11452758B2, “Antimicrobial peptide derived from LL37 peptide and uses thereof” (INDUSTRY-ACADEMIC COOPERATION FOUNDATION, CHOSUN UNIVERSITY, priority 2018, dated 2022).
≈ marks a conversion by molar mass, not a printed value. Like-named read-outs stand apart in the source and are kept apart here. Where a SMILES comes first, the peptide text is derived from it.

Columns and labels:
S. aureus ATCC 25923 = format: cell-based, Staphylococcus aureus; details: S. aureus ATCC 25923; MHB, 18 hours at 37° C.
Excerpt: (§1) To compare the antimicrobial activity among the peptides produced by the method of Example 1, the inventors of the present invention measured the minimal growth inhibitory concentration (MIC), which is minimum concentration of the peptide not allowing any […] of bacterial cells.
(§2) Specifically, the bacterial strains described in the following Table 2 were purchased and cultured to a mid-log phase in MHB (Mueller Hinton Broth) medium. Then, after dilution to bacterial cell concentration of 2×10^5 cells/50 μl, the cells were inoculated to a microtiter plate (NUNC, USA). Thereafter, LL37-1, LL37-2, LL37-3 or LL37-4 peptide which has been synthesized in Example 1 above was subjected to serial dilution, ½ times for each, in a 96-well plate. After adding the peptides in an amount of 50 μl to the cell plate, the cells were cultured for 18 hours at 37° C. By using a microtiter plate reader (Merck Elisa reader, Germany), the absorbance was measured at a wavelength of 600 nm to determine the MIC value of each bacterial strain. As a control group, LL37 as a mother peptide was used and subjected to the same process as above to determine the MIC value of each strain.

A. baumannii #10 = format: cell-based, Acinetobacter baumannii; details: A. baumannii #10, tolerance to antibiotics
Excerpt: as §1, §2

A. baumannii #11 = format: cell-based, Acinetobacter baumannii; details: A. baumannii #11, tolerance to antibiotics
Excerpt: as §1, §2

A. baumannii #12 = format: cell-based, Acinetobacter baumannii; details: A. baumannii #12, tolerance to antibiotics
Excerpt: as §1, §2

A. baumannii #13 = format: cell-based, Acinetobacter baumannii; details: A. baumannii #13, tolerance to antibiotics
Excerpt: as §1, §2

A. baumannii #19 = format: cell-based, Acinetobacter baumannii; details: A. baumannii #19, tolerance to antibiotics
Excerpt: as §1, §2

A. baumannii #2 = format: cell-based, Acinetobacter baumannii; details: A. baumannii #2, tolerance to antibiotics
Excerpt: as §1, §2

A. baumannii #3 = format: cell-based, Acinetobacter baumannii; details: A. baumannii #3, tolerance to antibiotics
Excerpt: as §1, §2

A. baumannii #4 = format: cell-based, Acinetobacter baumannii; details: A. baumannii #4, tolerance to antibiotics
Excerpt: as §1, §2

A. baumannii #5 = format: cell-based, Acinetobacter baumannii; details: A. baumannii #5, tolerance to antibiotics
Excerpt: as §1, §2

A. baumannii #8 = format: cell-based, Acinetobacter baumannii; details: A. baumannii #8, tolerance to antibiotics
Excerpt: as §1, §2

A. baumannii #9 = format: cell-based, Acinetobacter baumannii; details: A. baumannii #9, tolerance to antibiotics
Excerpt: as §1, §2

A. baumannii KCTC 2508 = format: cell-based, Acinetobacter baumannii; details: A. baumannii KCTC 2508
Excerpt: as §1, §2

P. aeruginosa ATCC 27853 = format: cell-based, Pseudomonas aeruginosa; details: P. aeruginosa ATCC 27853; MHB, 18 hours at 37° C.
Excerpt: as §1, §2

[1] = Cytotoxicity in normal cell line (MTT); format: cell-based, human; details: human, 24 hours, MTT, read-out: Cell survival ability; for viability at 24 h, 0.5 µM: peptide 0.5 μM; for viability at 24 h, 1 µM: peptide 1 μM; for viability at 24 h, 2 µM: peptide 2 μM; for viability at 24 h, 4 µM: peptide 4 μM; for viability at 24 h, 8 µM: peptide 8 μM; for viability at 24 h, 16 µM: peptide 16 μM; for viability at 24 h, 32 µM: peptide 32 μM
Procedure: To determine the cytotoxicity of the peptides produced by the method of Example 1 in normal cell line, cytotoxicity was measured by using normal human keratinocyte cell line (HaCaT) and normal human fibroblast cell line (Hs27).
Specifically, normal human keratinocyte (HaCaT) cells and normal human fibroblast (Hs27) cells, which have been cultured in DMEM medium containing 10% FBS (fetal bovine serum), were aliquoted in a microtiter plate to have 1×10^4 cells per well. After culturing them for 24 hours, the cells were subjected to a treatment with LL37, LL37-1, LL37-2, LL37-3 or LL37-4 peptide, each at concentration of 0.5, 1, 2, 4, 8, 16 or 32 μM/well, followed by reaction for 24 hours in a 5% CO2 incubator. After culture, a reaction solution containing 5 mg/ml MTT (Thiazolyl Blue Tetrazolium Bromide) dissolved in phosphate buffered saline (PBS) was added in an amount of 10 μl to each well and the reaction was allowed to occur for 1 hour. After that, the supernatant was discarded, and, by dissolving MTT crystals that are formed by adding 200 μl DMSO (dimethyl sulfoxide), the absorbance at 570 nm was measured to determine the cell survival ability.

[2] = HaCaT keratinocyte cells, HaCaT

Question: For CC[C@H](C)[C@H](NC(=O)[C@H](CCCNC(=N)N)NC(=O)[C@H](CCC(N)=O)NC(=O)[C@@H](NC(=O)[C@@H](NC(=O)[C@H](CCCNC(=N)N)NC(=O)[C@H](CCCCN)NC(=O)[C@H](Cc1ccccc1)NC(=O)[C@H](CCCCN)NC(=O)[C@@H](N)CCCCN)[C@@H](C)CC)C(C)C)C(=O)N[C@@H](CCCCN)C(=O)N[C@@H](CC(=O)O)C(=O)N[C@@H](Cc1ccccc1)C(=O)N[C@@H](CC(C)C)C(=O)N[C@@H](CCCNC(=N)N)C(=O)N[C@@H](CC(N)=O)C(N)=O [LL37-2, KKFKRIVQRIKDFLRN-NH2] (H-KKFKRIVQRIKDFLRN-NH2), which Minimal inhibitory concentration (S. aureus ATCC 25923) is on record?
Answer: 2 µM (≈ 4.18 µg/mL)

Question: And the Minimal inhibitory concentration (A. baumannii #10)?
Answer: 2 µM (≈ 4.18 µg/mL)

Question: What about the Minimal inhibitory concentration (A. baumannii #11) of the same compound?
Answer: 2 µM (≈ 4.18 µg/mL)

Question: And the Minimal inhibitory concentration (A. baumannii #12)?
Answer: 2 µM (≈ 4.18 µg/mL)

Question: What about the Minimal inhibitory concentration (A. baumannii #13) of the same compound?
Answer: 2 µM (≈ 4.18 µg/mL)

Question: What about the Minimal inhibitory concentration (A. baumannii #19) of the same compound?
Answer: 2 µM (≈ 4.18 µg/mL)

Question: And the Minimal inhibitory concentration (A. baumannii #2)?
Answer: 2 µM (≈ 4.18 µg/mL)

Question: What about the Minimal inhibitory concentration (A. baumannii #3) of the same compound?
Answer: 2 µM (≈ 4.18 µg/mL)

Question: What about the Minimal inhibitory concentration (A. baumannii #4) of the same compound?
Answer: 2 µM (≈ 4.18 µg/mL)

Question: What about the Minimal inhibitory concentration (A. baumannii #5) of the same compound?
Answer: 2 µM (≈ 4.18 µg/mL)

Question: And the Minimal inhibitory concentration (A. baumannii #8)?
Answer: 2 µM (≈ 4.18 µg/mL)

Question: And the Minimal inhibitory concentration (A. baumannii #9)?
Answer: 2 µM (≈ 4.18 µg/mL)

Question: And the “Minimal inhibitory concentration of antimicrobial peptide” value (A. baumannii KCTC 2508; Control (MIC values of Table 3, no added ions))?
Answer: 4 µM

Question: What about the Minimal inhibitory concentration (A. baumannii KCTC 2508; MHB, 18 hours at 37° C.) of the same compound?
Answer: 4 µM (≈ 8.35 µg/mL)

Question: What about the Minimal inhibitory concentration (P. aeruginosa ATCC 27853) of the same compound?
Answer: 8 µM (≈ 16.7 µg/mL)

Question: And the viability at 24 h, 0.5 µM [1, 2]?
Answer: 100%

Question: What about the viability at 24 h, 1 µM [1, 2] of the same compound?
Answer: 106%

Question: And the viability at 24 h, 2 µM [1, 2]?
Answer: 104%

Question: And the viability at 24 h, 4 µM [1, 2]?
Answer: 102%

Question: What about the viability at 24 h, 8 µM [1, 2] of the same compound?
Answer: 101%

Question: What about the viability at 24 h, 16 µM [1, 2] of the same compound?
Answer: 107%

Question: What about the viability at 24 h, 32 µM [1, 2] of the same compound?
Answer: 107%

Question: What about the viability at 24 h, 0.5 µM ([1]; Hs27 fibroblast cells, Hs27) of the same compound?
Answer: 92%

Question: What about the viability at 24 h, 1 µM ([1]; Hs27 fibroblast cells, Hs27) of the same compound?
Answer: 92%

Question: And the viability at 24 h, 2 µM ([1]; Hs27 fibroblast cells, Hs27)?
Answer: 94%

Question: And the viability at 24 h, 4 µM ([1]; Hs27 fibroblast cells, Hs27)?
Answer: 91%

Question: What about the viability at 24 h, 8 µM ([1]; Hs27 fibroblast cells, Hs27) of the same compound?
Answer: 89%

Question: What about the viability at 24 h, 16 µM ([1]; Hs27 fibroblast cells, Hs27) of the same compound?
Answer: 93%

Question: And the viability at 24 h, 32 µM ([1]; Hs27 fibroblast cells, Hs27)?
Answer: 97%
